Data reported in patent EP0701444B1, “METHODS AND COMPOSITIONS FOR INDUCING SLEEP” (Purdue Pharma Ltd., priority 1993, dated 1994).
Values joined by “and” are separate entries in the source; they are usually repeats but may differ in a detail not shown here. Equal entries are not always repeated. Structures can show the parent of a compound that is named as a salt.

Target: steroid site on the GABAA receptor-chloride channel complex
Assay: [35S]TBPS binding assay
Design: species or system Male Sprague-Dawley rats
Conditions: inhibition of [35S]TBPS (2 nM) binding, rat cerebral cortex P2 membranes, 5 µM GABA, 90 minute incubation at 22°C
Experimental: TBPS binding assays were conducted according to the following procedures, which are described in Gee, K.W.; Lawrence, L.J.; and Yamamura, H. I., "Modulation of the Chloride Ionophore by Benzodiazepine Receptor Ligands Influence of Gamma-Aminobutyric Acid and Ligand Efficacy," Molecular Pharmacology, 30:218, 1986. Male Sprague-Dawley rats (200-250g) were anesthetized with carbon dioxide and decapitated. The rats' brains were removed and the cerebral cortices were dissected and homogenized in 10 volumes of 0.32 M sucrose. Tissue was centrifuged at 1000 x g for 10 minutes and the resultant supernatant was centrifuged at 9,000 g for 20 minutes. The resultant pellet was resuspended in 10 volumes of 200 mM NaCl/50 mM Na-K phosphate pH 7.4 buffer (binding buffer) and then centrifuged at 9,000 x g for 10 minutes. This washing procedure was repeated twice and the final P2 pellet was resuspended in the binding buffer. For the binding assay, [^35S] TBPS (2 nM) was co-incubated in binding buffer with P2 membranes and 5 µM GABA and either 1) no additions to measure total binding; 2) 2 µM unlabeled TPBS to measure nonspecific binding; 3) the neurosteroid ranging in concentration from 1 Nm to 10µM. Following a 90 minute incubation at 22°C, the suspension was filtered and the bound radioactivity was determined by liquid scintillation counting. […] A lower IC50 indicates higher affinity for the steroid site on the GABAA receptor-chloride channel complex. Table 1 gives the IC50 values of representative steroids used in the present invention.

Compound | IC50 | IC50 (sodium salt) [nM]
C[C@@]12CCC[C@H]1[C@@H]1CC[C@H]3C[C@H](O)CC[C@]3(C)[C@H]1CC2 [3α-Hydroxy-5α-androstane] | 252 nM | 
CC(=O)[C@H]1CC[C@H]2[C@@H]3CC[C@H]4C[C@](C)(O)CC[C@@H]4[C@H]3CC[C@]12C [3α-hydroxy-3β-methyl-5α-19-nor-pregnan-20-) one] | 91 nM | 
CCCCCC#C[C@@]1(O)CC[C@@]2(C)[C@H](CC[C@@H]3[C@@H]2CC[C@]2(C)[C@@H](C(C)=O)CC[C@@H]32)C1 [3β-(1-Heptynyl)-3α-hydroxy-5β-pregnan-20-one] | 65 nM | 
CC(=O)[C@H]1CC[C@H]2[C@@H]3CC[C@H]4C[C@@](O)(C#CC(C)O)CC[C@]4(C)[C@H]3CC[C@]12C (stereo partly drawn) [3α-Hydroxy-3β-[3'(RS)-hydroxybutynyl]-5α-pregnan-20-one] | 140 nM | 
CCCCC#C[C@@]1(O)CC[C@@]2(C)[C@H](CC[C@@H]3[C@@H]2CC[C@]2(C)[C@@H](C(C)=O)CC[C@@H]32)C1 [3β-(1-Hexynyl)-3α-hydroxy-5β-pregnan-20-one] | 44 nM | 
CCC(=O)[C@H]1CC[C@H]2[C@@H]3CC[C@H]4C[C@](C)(O)CC[C@]4(C)[C@H]3CC[C@]12C [3α-hydroxy-3β,21-dimethyl-5α-pregnan-20-one] | 89 nM | 
CO/C=C1/CC[C@H]2[C@@H]3CC[C@H]4C[C@H](O)CC[C@@H]4[C@H]3CC[C@]12C [3α-hydroxy-17(Z)-methoxymethylene-19-nor-5α-androstane] | 350 nM | 
CC(=O)[C@H]1CC[C@H]2[C@@H]3CC[C@H]4C[C@@](O)(CF)CC[C@]4(C)[C@H]3CC[C@]12C [3α-hydroxy-3β-fluoromethyl-5α-pregnan-20-one] | 200 nM | 
C/C=C1/CC[C@H]2[C@@H]3CC[C@@H]4C[C@](C)(O)CC[C@@H]4[C@H]3CC[C@]12C [3α-Hydroxy-3β-methyl-5β-19-nor-pregn-17 (Z)-ene] | 154 nM | 
CC(C)(O)[C@H]1CC[C@H]2[C@@H]3CC[C@H]4C[C@](C)(O)CC[C@]4(C)[C@H]3CC[C@]12C [3α, 20-dihydroxy-3β, 20-dimethyl-5α-pregnane] | 264 nM | 
C#C[C@@]1(O)CC[C@H]2[C@H](CC[C@@H]3[C@@H]2CC[C@]2(C)[C@@H](C(C)=O)CC[C@@H]32)C1 [3β-Ethynyl-3α-hydroxy-19-nor-5β-pregnan-20-one] | 44 nM | 
CC(=O)OCC(=O)[C@H]1CC[C@H]2[C@@H]3CC[C@H]4C[C@H](O)CC[C@]4(C)[C@H]3CC[C@]12C [3α,21-dihydroxy-5α-pregnan-20-one 21-acetate] | 75 nM and 119 nM | 
20,20-ethylenedioxy-3α-hydroxy-5α-pregnan-20-one | 176 nM | 
CC(=O)[C@H]1CC[C@H]2[C@@H]3CC[C@H]4C[C@@](O)(C(F)(F)F)CC[C@@H]4[C@H]3CC[C@]12C [3α-Hydroxy-3β-trifluoromethyl-19-nor-5α-pregnan-20-one] | 251 nM | 
C[C@]12CC[C@@H](O)C[C@@H]1CC[C@@H]1[C@@H]2CC[C@]2(C)[C@@H](C(=O)CSc3ccncc3)CC[C@@H]12 [3α-hydroxy-21-(pyrid-4-ylthio)-5α-pregnan-20-one] | 23 nM | 
CC(=O)[C@H]1CC[C@H]2[C@@H]3CC[C@@H]4C[C@](C)(O)CC[C@@H]4[C@H]3CC[C@]12C [3α-Hydroxy-3β-methyl-5β-19-nor-pregnan-20-one] | 26 nM | 
CC(=O)[C@H]1CC[C@H]2[C@@H]3CC[C@H]4C[C@@](O)(CBr)CC[C@]4(C)[C@H]3CC[C@]12C [3β-(Bromomethyl)-3α-hydroxy-5α-pregnan-20-one] | 190 nM | 
C=C=CC[C@@]1(O)CC[C@@]2(C)[C@@H](CC[C@@H]3[C@@H]2CC[C@]2(C)[C@@H](C(C)=O)CC[C@@H]32)C1 [3β-(Buta-2,3-dienyl)-3α-hydroxy-5α-pregnan-20-one] | 347 nM | 
C[C@]12CC[C@@H](O)C[C@H]1CC[C@@H]1[C@@H]2CC[C@]2(C)[C@@H](C(=O)COC(=O)CCC(=O)O)CC[C@@H]12 [3α,21-dihydroxy-5β-pregnan-20-one 21-hemisuccinate] | 224 nM | 
C[C@]12CC[C@@H](O)C[C@@H]1CC[C@@H]1[C@@H]2CC[C@]2(C)[C@@H](C(=O)COC(=O)CCC(=O)O)CC[C@@H]12 [3α,21-dihydroxy-5α-pregnan-20-one 21-hemisuccinate, sodium salt] |  | 251
CC(=O)[C@H]1CC[C@H]2[C@@H]3CC[C@@H]4C[C@@](O)(C#CCl)CC[C@]4(C)[C@H]3CC[C@]12C [3β-(chloroethynyl)-3α-hydroxy-5β-pregnan-20-one] | 26 nM | 

Compound | IC50 | IC50 (sodium salt) [nM]
CC(=O)[C@H]1CC[C@H]2[C@@H]3CC[C@H]4C[C@@](O)(CC#N)CC[C@]4(C)[C@H]3CC[C@]12C [3β-cyanomethyl-3α-hydroxy-5α-pregnan-20-one] | 439 nM | 
C#C[C@H]1CC[C@H]2[C@@H]3CC[C@H]4C[C@H](O)CC[C@]4(C)[C@H]3CC[C@]12C [3α-Hydroxy-17b-ethynyl-5α-androstane] | 254 nM | 
CCC[C@H](O)[C@H]1CC[C@H]2[C@@H]3CC[C@H]4C[C@H](O)CC[C@]4(C)[C@H]3CC[C@]12C [3α,20a-Dihydroxy-21-ethyl-5α-pregnane] | 27 nM | 
C=CC[C@@]1(O)CC[C@@]2(C)[C@H](CC[C@@H]3[C@@H]2CC[C@]2(C)[C@@H](C(C)=O)CC[C@@H]32)C1 [3α-Hydroxy-3β-(2'-propenyl)-5β-pregnan-20-one] | 75 nM | 
CC[C@H](O)[C@H]1CC[C@H]2[C@@H]3CC[C@H]4C[C@H](O)CC[C@]4(C)[C@H]3CC[C@]12C [3α,20a-Dihydroxy-21-methyl-5α-pregnane] | 35 nM | 
C[C@H](O)[C@H]1CC[C@H]2[C@@H]3CC[C@@H]4C[C@H](O)CC[C@]4(C)[C@H]3CC[C@]12C [3α, 20a-dihydroxy-5β-pregnane] | 292 nM | 
CCOC(=O)c1ccc(C#C[C@@]2(O)CC[C@@]3(C)[C@H](CC[C@@H]4[C@@H]3CC[C@]3(C)[C@@H](C(C)=O)CC[C@@H]43)C2)cc1 [3β-(4'-Carboxyphenyl)ethynyl-3α-hydroxy-5β-pregnan-20-one ethyl ester] | 8 nM | 
COCC(=O)[C@H]1CC[C@H]2[C@@H]3CC[C@@H]4C[C@@](O)(C(F)(F)F)CC[C@@H]4[C@H]3CC[C@]12C [3α-hydroxy-21-methoxy-3β-trifluoromethyl-5β-19-nor-pregnan-20-one] | 252 nM | 
CC[C@@]1(O)CC[C@@]2(C)[C@@H](CC[C@@H]3[C@@H]2CC[C@]2(C)[C@@H](C(C)=O)CC[C@@H]32)C1 [3α-hydroxy-3β-ethyl-5α-pregnan-20-one] | 265 nM | 
C[C@@]1(O)CC[C@@]2(C)[C@@H](CC[C@@H]3[C@@H]2CC[C@]2(C)[C@@H](C(=O)COC(=O)CCC(=O)O)CC[C@@H]32)C1 [3α,21-dihydroxy-3β-methyl-5α-pregnan-20-one 21-Hemisuccinate, sodium salt] |  | 211
C[C@]12CC[C@@H](O)C[C@@H]1CC[C@@H]1[C@@H]2CC[C@]2(C)[C@@H](C(=O)COC(=O)CCC(=O)O)CC[C@@H]12 [3α,21-dihydroxy-5α-pregnan-20-one 21-hemisuccinate] | 117 nM | 
C=CCC[C@@]1(O)CC[C@@]2(C)[C@@H](CC[C@@H]3[C@@H]2CC[C@]2(C)[C@@H](C(C)=O)CC[C@@H]32)C1 [3β-(But-3-enyl)-3α-hydroxy-5α-pregnan-20-one] | 242 nM | 
COc1ccc(C#C[C@@]2(O)CC[C@@]3(C)[C@H](CC[C@@H]4[C@@H]3CC[C@]3(C)[C@@H](C(C)=O)CC[C@@H]43)C2)cc1OC [3β-[(3',4'-Dimethoxyphenyl)ethynyl] -3α-hydroxy-5/3-pregnan-20-one] | 283 nM | 
C[C@@]1(O)CC[C@@]2(C)[C@@H](CC[C@@H]3[C@@H]2CC[C@]2(C)[C@@H](C(=O)COC(=O)CCC(=O)O)CC[C@@H]32)C1 [3α,21-dihydroxy-3β-methyl-5α-pregnan-20-one 21-Hemisuccinate] | 241 nM | 
C[C@@]1(O)CC[C@@]2(C)[C@@H](CC[C@@H]3[C@@H]2CC[C@]2(C)[C@@H](C(=O)COS(C)(=O)=O)CC[C@@H]32)C1 [3α, 21-dihydroxy-3β-methyl-5α-pregnan-20-one 21-mesylate] | 255 nM | 
CCC(=O)[C@H]1CC[C@H]2[C@@H]3CC[C@@H]4C[C@H](O)CC[C@]4(C)[C@H]3CC[C@]12C [3α-hydroxy-21-methyl-5β-pregnan-20-one] | 78 nM | 
C/C=C1/CC[C@H]2[C@@H]3CC[C@H]4C[C@](C)(O)CC[C@@H]4[C@H]3CC[C@]12C [3α-hydroxy-3β-methyl-5α-19-nor-pregn-(Z)-17(20)-ene] | 364 nM | 
C[C@]12CC[C@@H](O)C[C@@H]1CC[C@@H]1[C@@H]2CC[C@]2(C)[C@@H](C#N)CC[C@@H]12 [3α-hydroxy-17b-cyano-5α-androstane] | 67 nM | 
CC(=O)[C@H]1CC[C@H]2[C@@H]3CC[C@H]4C[C@@](O)(CCl)CC[C@]4(C)[C@H]3CC[C@]12C [3α-hydroxy-3β-chloromethyl-5α-pregnan-20-one] | 93 nM | 
CCOC[C@@]1(O)CC[C@@]2(C)[C@@H](CC[C@@H]3[C@@H]2CC[C@]2(C)[C@@H](C(C)=O)CC[C@@H]32)C1 [3β-(Ethoxymethyl)-3α-hydroxy-5α-pregnan-20-one] | 154 nM | 
C#C[C@@]1(O)CC[C@@]2(C)[C@H](CC[C@@H]3[C@@H]2CC[C@]2(C)[C@@H](C(=O)COC(C)=O)CC[C@@H]32)C1 [3α, 21-Dihydroxy-3β-ethynyl-5β-pregnan-20-one, 21-acetate] | 251 nM | 
